Results published in patent publication US20230073777A1, “CYCLIC-AMP RESPONSE ELEMENT BINDING PROTEIN (CBP) AND/OR ADENOVIRAL E1A BINDING PROTEIN OF 300 KDA (P300) DEGRADATION COMPOUNDS AND METHODS OF USE” (CULLGEN (SHANGHAI), INC., priority 2019, published 2023).
Like-named read-outs stand apart in the source and are kept apart here.

How the values were obtained:
LNCaP cells = experiment: LNCaP cell viability assay (CellTiter-Glo); format: cell-based; conditions: Homo sapiens, 72 h, LNCaP prostate cancer cell viability inhibition, 3 days
Method: LNCaP cells seeded in 96-well plates were treated with 10 μM GNE-781 or selected bivalent compounds, i.e. P-001, P-002, and P-019, following a 12-point 3-fold serial dilution. Three days after treatment, cell viability was determined using the CellTiter-Glo kit (Promega) following manufacturer's instructions. Cell viability was normalized to the mean values of 3 replicates of untreated cells. Dose-dependent response was analyzed following the least-squares non-linear regression method using the GraphPad Prism 5.0 software.
LNCaP cells were treated with GNE-781 or selected bivalent compounds for 3 days at indicated concentrations following a 3-fold serial dilution.
Cells were seeded at a density of 5000 cells per well in 96-well assay plates and treated with test compounds following a 12-point 3-fold serial dilution. Three days later, cell viability was determined using the CellTiter-Glo assay kit according to the manufacturer's instructions. The dose-response curves were determined and IC50 values were calculated using the GraphPad Prism software following a nonlinear regression (least squares fit) method.

P300 = P300 (Homo sapiens, UniProt Q09472); experiment: Immunoblotting of P300 protein levels in LNCaP or 22RV1 cells; format: cell-based; design: LNCaP or 22RV1 cells that express CBP/P300 proteins were treated with GNE-781 or the bivalent compounds; endogenous in cells; host or cells: LNCaP (clone FGC) or 22RV1 cells; conditions: read-out: Degradation (10 nM)
Sequence of P300 (Q09472 whole entry): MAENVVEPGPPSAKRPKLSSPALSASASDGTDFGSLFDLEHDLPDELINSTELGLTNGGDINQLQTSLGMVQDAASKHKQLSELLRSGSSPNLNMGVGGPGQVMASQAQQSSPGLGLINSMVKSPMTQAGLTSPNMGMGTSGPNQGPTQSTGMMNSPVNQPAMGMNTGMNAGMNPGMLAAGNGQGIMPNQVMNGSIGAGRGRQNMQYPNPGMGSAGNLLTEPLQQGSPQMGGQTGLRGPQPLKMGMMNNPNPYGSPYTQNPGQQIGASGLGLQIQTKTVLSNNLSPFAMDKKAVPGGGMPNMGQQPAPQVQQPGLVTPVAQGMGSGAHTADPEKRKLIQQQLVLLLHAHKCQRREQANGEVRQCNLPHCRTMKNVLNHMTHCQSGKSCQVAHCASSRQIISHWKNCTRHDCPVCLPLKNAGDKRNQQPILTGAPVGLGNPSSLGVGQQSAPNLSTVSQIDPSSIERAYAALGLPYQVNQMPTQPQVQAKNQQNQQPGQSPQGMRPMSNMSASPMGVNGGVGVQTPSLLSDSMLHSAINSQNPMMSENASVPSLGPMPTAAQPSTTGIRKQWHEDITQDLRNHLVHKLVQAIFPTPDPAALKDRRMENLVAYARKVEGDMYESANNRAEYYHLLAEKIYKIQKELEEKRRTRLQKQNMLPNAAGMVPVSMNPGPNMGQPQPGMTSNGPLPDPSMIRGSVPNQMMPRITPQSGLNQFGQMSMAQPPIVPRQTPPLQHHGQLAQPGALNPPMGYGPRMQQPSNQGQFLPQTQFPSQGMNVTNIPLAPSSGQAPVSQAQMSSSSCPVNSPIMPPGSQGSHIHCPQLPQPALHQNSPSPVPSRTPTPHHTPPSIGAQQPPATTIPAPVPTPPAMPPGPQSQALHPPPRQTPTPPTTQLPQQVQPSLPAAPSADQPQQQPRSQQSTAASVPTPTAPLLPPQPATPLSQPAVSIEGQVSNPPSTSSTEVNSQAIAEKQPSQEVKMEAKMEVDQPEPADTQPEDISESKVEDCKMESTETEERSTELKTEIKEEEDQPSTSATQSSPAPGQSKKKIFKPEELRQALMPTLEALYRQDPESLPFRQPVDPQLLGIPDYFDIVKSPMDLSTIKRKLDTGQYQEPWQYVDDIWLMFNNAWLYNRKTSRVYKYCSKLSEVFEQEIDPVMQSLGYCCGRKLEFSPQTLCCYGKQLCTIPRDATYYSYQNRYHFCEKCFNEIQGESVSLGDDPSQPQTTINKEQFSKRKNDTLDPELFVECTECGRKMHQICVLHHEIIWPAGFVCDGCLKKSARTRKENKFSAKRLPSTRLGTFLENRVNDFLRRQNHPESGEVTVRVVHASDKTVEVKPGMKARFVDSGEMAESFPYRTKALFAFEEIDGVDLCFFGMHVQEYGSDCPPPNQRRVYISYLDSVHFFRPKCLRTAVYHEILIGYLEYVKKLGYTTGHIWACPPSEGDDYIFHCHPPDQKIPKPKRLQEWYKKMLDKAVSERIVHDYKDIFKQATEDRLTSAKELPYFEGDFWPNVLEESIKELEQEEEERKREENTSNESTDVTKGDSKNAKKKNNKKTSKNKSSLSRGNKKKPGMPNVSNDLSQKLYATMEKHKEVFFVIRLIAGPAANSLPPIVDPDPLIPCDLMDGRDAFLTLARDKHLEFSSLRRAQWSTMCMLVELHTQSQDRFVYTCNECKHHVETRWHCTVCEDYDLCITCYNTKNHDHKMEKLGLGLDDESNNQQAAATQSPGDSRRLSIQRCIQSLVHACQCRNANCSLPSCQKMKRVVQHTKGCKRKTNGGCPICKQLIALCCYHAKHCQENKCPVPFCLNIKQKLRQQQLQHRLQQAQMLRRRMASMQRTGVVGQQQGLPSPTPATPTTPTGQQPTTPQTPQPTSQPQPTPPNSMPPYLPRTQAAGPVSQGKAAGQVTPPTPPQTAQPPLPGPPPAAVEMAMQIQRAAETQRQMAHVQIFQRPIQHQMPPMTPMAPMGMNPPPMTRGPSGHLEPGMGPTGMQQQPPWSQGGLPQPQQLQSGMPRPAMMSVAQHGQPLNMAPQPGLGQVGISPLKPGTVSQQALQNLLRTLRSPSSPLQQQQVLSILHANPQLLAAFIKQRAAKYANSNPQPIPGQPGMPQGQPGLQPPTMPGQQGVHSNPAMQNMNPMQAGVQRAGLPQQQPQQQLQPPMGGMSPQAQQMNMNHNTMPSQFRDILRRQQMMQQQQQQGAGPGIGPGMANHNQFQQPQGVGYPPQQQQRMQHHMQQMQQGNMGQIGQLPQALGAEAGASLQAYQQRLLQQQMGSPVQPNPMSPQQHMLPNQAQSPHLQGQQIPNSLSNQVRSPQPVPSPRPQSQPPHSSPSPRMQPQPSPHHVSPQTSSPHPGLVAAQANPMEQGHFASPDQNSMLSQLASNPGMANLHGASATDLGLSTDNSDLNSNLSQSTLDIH
Method: Specific exemplary bivalent compounds were characterized in LNCaP or 22RV1 cells. LNCaP or 22RV1 cells that express CBP/P300 proteins were treated with GNE-781 or the bivalent compounds disclosed herein (P-001 to P-174) for indicated hours. Cells were collected, lysed and subject to immunoblotting using an antibody specific to P300 or CBP proteins. Tubulin or vinculin was included as the loading control. DMSO was used as the negative control.
Cultured cells or tissue chunks were washed with cold PBS once and lysed in cold RIPA buffer supplemented with protease inhibitors and phosphatase inhibitors (Beyotime Biotechnology). The solutions were then incubated at 4° C. for 30 minutes with gentle agitation to fully lyse cells. Cell lysates were centrifuged at 13,000 rpm for 10 minutes at 4° C. and pellets were discarded. Total protein concentrations in the lysates were determined by BCA assays (Beyotime Biotechnology). Cell lysates were mixed with Laemmli loading buffer to 1× and heated at 99° C. for 5 min. Proteins were resolved on SDS-PAGE and visualized by chemiluminescence. Images were taken by a ChemiDoc MP Imaging system (Bio-Rad). Protein bands were quantitated using the accompanied software provided by Bio-Rad.

[1] = percentage of inhibition of p300 at 10 nM (Table 3)
[2] = percentage of inhibition of p300 at 10 nM (Table 2)

| Structure (SMILES) | IC50 (LNCaP cells; CellTiter-Glo (Table 3)) | inhibition at 0.01 µM (P300; [1]) | IC50 (LNCaP cells; CellTiter-Glo (Table 2)) | inhibition at 0.01 µM (P300; [2]) |
| --- | --- | --- | --- | --- |
| CNC(=O)N1CCc2c(c(N3CCCc4cc(-c5cnn(CC(=O)NCCOCCOCCOCC(=O)N[C@H](C(=O)N6C[C@H](O)C[C@H]6C(=O)NCc6ccc(-c7scnc7C)cc6)C(C)(C)C)c5)c(C(F)F)cc43)nn2C2CCOCC2)C1 [P-076, 3-(7-(Difluoromethyl)-6-(1-((S)-16-((2S,4R)-4-hydroxy-2-((4-(4-methylthiazol-5-yl)benzyl)carbamoyl)pyrrolidine-1-carbonyl)-17,17-dimethyl-2,14-dioxo-6,9,12-trioxa-3,15-diazaoctadecyl)-1H-pyrazol-4-yl)-3,4-dihydroquinolin-1(2H)-yl)-N-methyl-1-(tetrahydro-2H-pyran-4-yl)-1,4,6,7-tetrahydro-5H-pyrazolo[4,3-c]pyridine-5-carboxamide] | > 10000 nM | < 20% | – | – |
| CNC(=O)N1CCc2c(c(N3CCCc4cc(-c5cnn(C)c5)c(C(F)F)cc43)nn2C2CCN(C(=O)CCOCCOCCOCCNc3ccc4c(c3)C(=O)N(C3CCC(=O)NC3=O)C4=O)CC2)C1 (centres unmarked) [P-010, 3-(7-(Difluoromethyl)-6-(1-methyl-1H-pyrazol-4-yl)-3,4-dihydroquinolin-1(2H)-yl)-1-(1-(3-(2-(2-(2-((2-(2,6-dioxopiperidin-3-yl)-1,3-dioxoisoindolin-5-yl)amino)ethoxy)ethoxy)ethoxy)propanoyl)piperidin-4-yl)-N-methyl-1,4,6,7-tetrahydro-5H-pyrazolo[4,3-c]pyridine-5-carboxamide] | – | – | 152 nM | 20 to 50% |
| CC(=O)N1CCc2c(c(N3CCCc4cc(-c5cnn(C)c5)c(C(F)F)cc43)nn2C2CCN(C(=O)CCCCCNc3cccc4nc(C)n(C5CCC(=O)NC5=O)c(=O)c34)CC2)C1 (centres unmarked) [P-165, 3-(5-((6-(4-(5-Acetyl-3-(7-(difluoromethyl)-6-(1-methyl-1H-pyrazol-4-yl)-3,4-dihydroquinolin-1(2H)-yl)-4,5,6,7-tetrahydro-1H-pyrazolo[4,3-c]pyridin-1-yl)piperidin-1-yl)-6-oxohexyl)amino)-2-methyl-4-oxoquinazolin-3(4H)-yl)piperidine-2,6-dione] | 123 nM | 50 to 80% | – | – |
| CC(=O)N1CCc2c(c(N3CCCc4cc(-c5cnn(CC(=O)NCCCCCCCNc6ccc7c(c6)C(=O)N(C6CCC(=O)NC6=O)C7=O)c5)c(C(F)F)cc43)nn2C2CCOCC2)C1 (centres unmarked) [P-133, 2-(4-(1-(5-acetyl-1-(tetrahydro-2H-pyran-4-yl)-4,5,6,7-tetrahydro-1H-pyrazolo[4,3-c]pyridin-3-yl)-7-(difluoromethyl)-1,2,3,4-tetrahydroquinolin-6-yl)-1H-pyrazol-1-yl)-N-(7-((2-(2,6-dioxopiperidin-3-yl)-1,3-dioxoisoindolin-5-yl)amino)heptyl)acetamide] | 4 nM | > 80% | – | – |
| CNC(=O)N1CCc2c(c(N3CCCc4cc(-c5cnn(CC(=O)NCCCCCCNc6ccc7c(c6)C(=O)N(C6CCC(=O)NC6=O)C7=O)c5)c(C(F)F)cc43)nn2C2CCOCC2)C1 (centres unmarked) [P-020] | – | – | 3.3 nM | > 80% |
| CNC(=O)N1CCc2c(c(N3CCCc4cc(-c5cnn(CC(=O)NCCOCCNc6ccc7c(c6)C(=O)N(C6CCC(=O)NC6=O)C7=O)c5)c(C(F)F)cc43)nn2C2CCOCC2)C1 (centres unmarked) [P-028, 3-(7-(Difluoromethyl)-6-(1-(2-((2-(2-((2-(2,6-dioxopiperidin-3-yl)-1,3-dioxoisoindolin-5-yl)amino)ethoxy)ethyl)amino)-2-oxoethyl)-1H-pyrazol-4-yl)-3,4-dihydroquinolin-1(2H)-yl)-N-methyl-1-(tetrahydro-2H-pyran-4-yl)-1,4,6,7-tetrahydro-5H-pyrazolo[4,3-c]pyridine-5-carboxamide] | – | – | 1040 nM | < 20% |
| CNC(=O)N1CCc2c(c(N3CCCc4cc(-c5cnn(C)c5)c(C(F)F)cc43)nn2C2CCN(C(=O)CCOCCOCCOCCNc3cccc4c3C(=O)N(C3CCC(=O)NC3=O)C4=O)CC2)C1 (centres unmarked) [P-053, 3-(7-(Difluoromethyl)-6-(1-methyl-1H-pyrazol-4-yl)-3,4-dihydroquinolin-1(2H)-yl)-1-(1-(3-(2-(2-(2-((2-(2,6-dioxopiperidin-3-yl)-1,3-dioxoisoindolin-4-yl)amino)ethoxy)ethoxy)ethoxy)propanoyl)piperidin-4-yl)-N-methyl-1,4,6,7-tetrahydro-5H-pyrazolo[4,3-c]pyridine-5-carboxamide] | 76.5 nM | 20 to 50% | – | – |

Continued, values first:

| IC50 (LNCaP cells; CellTiter-Glo (Table 3)) | inhibition at 0.01 µM (P300; [1]) | IC50 (LNCaP cells; CellTiter-Glo (Table 2)) | inhibition at 0.01 µM (P300; [2]) | Structure (SMILES) |
| --- | --- | --- | --- | --- |
| 41.2 nM | > 80% | – | – | CC(=O)N1CCc2c(c(N3CCCc4cc(-c5cnn(C)c5)c(C(F)F)cc43)nn2C2CCN(C(=O)CCCCCOc3cccc4c3C(=O)N(C3CCC(=O)NC3=O)C4=O)CC2)C1 (centres unmarked) [P-117, 4-((6-(4-(5-Acetyl-3-(7-(difluoromethyl)-6-(1-methyl-1H-pyrazol-4-yl)-3,4-dihydroquinolin-1(2H)-yl)-4,5,6,7-tetrahydro-1H-pyrazolo[4,3-c]pyridin-1-yl)piperidin-1-yl)-6-oxohexyl)oxy)-2-(2,6-dioxopiperidin-3-yl)isoindoline-1,3-dione] |
| 31.1 nM | > 80% | – | – | CC(=O)N1CCc2c(c(N3CCCc4cc(-c5cnn(C)c5)c(C(F)F)cc43)nn2C2CCN(C(=O)CCCCCNc3cccc4c3n(C)c(=O)n4C3CCC(=O)NC3=O)CC2)C1 (centres unmarked) [P-110, 3-(4-((6-(4-(5-acetyl-3-(7-(difluoromethyl)-6-(1-methyl-1H-pyrazol-4-yl)-3,4-dihydroquinolin-1(2H)-yl)-4,5,6,7-tetrahydro-1H-pyrazolo[4,3-c]pyridin-1-yl)piperidin-1-yl)-6-oxohexyl)amino)-3-methyl-2-oxo-2,3-dihydro-1H-benzo[d]imidazol-1-yl)piperidine-2,6-dione] |
| 73.3 nM | > 80% | – | – | CC(=O)N1CCc2c(c(N3CCCc4cc(-c5cnn(C)c5)c(C(F)F)cc43)nn2C2CCN(C(=O)CCN3CCC(CCc4cccc5c4C(=O)N(C4CCC(=O)NC4=O)C5=O)CC3)CC2)C1 (centres unmarked) [P-148, 4-(2-(1-(3-(4-(5-acetyl-3-(7-(difluoromethyl)-6-(1-methyl-1H-pyrazol-4-yl)-3,4-dihydroquinolin-1(2H)-yl)-4,5,6,7-tetrahydro-1H-pyrazolo[4,3-c]pyridin-1-yl)piperidin-1-yl)-3-oxopropyl)piperidin-4-yl)ethyl)-2-(2,6-dioxopiperidin-3-yl)isoindoline-1,3-dione] |
| 21.1 nM | 50 to 80% | – | – | CNC(=O)N1CCc2c(c(N3CCCc4cc(-c5cnn(C)c5)c(C(F)F)cc43)nn2C2CCN(C(=O)CCCCCCc3cccc4c3CN(C3CCC(=O)NC3=O)C4=O)CC2)C1 (centres unmarked) [P-086, 3-(7-(Difluoromethyl)-6-(1-methyl-1H-pyrazol-4-yl)-3,4-dihydroquinolin-1(2H)-yl)-1-(1-(7-(2-(2,6-dioxopiperidin-3-yl)-1-oxoisoindolin-4-yl)heptanoyl)piperidin-4-yl)-N-methyl-1,4,6,7-tetrahydro-5H-pyrazolo[4,3-c]pyridine-5-carboxamide] |
| 32.6 nM | 20 to 50% | – | – | CC(=O)N1CCc2c(c(N3CCCc4cc(-c5cnn(C)c5)c(C(F)F)cc43)nn2C2CCN(C(=O)CN3CC(CCNc4cccc5c4C(=O)N(C4CCC(=O)NC4=O)C5=O)C3)CC2)C1 (centres unmarked) [P-170, 4-((2-(1-(2-(4-(5-Acetyl-3-(7-(difluoromethyl)-6-(1-methyl-1H-pyrazol-4-yl)-3,4-dihydroquinolin-1(2H)-yl)-4,5,6,7-tetrahydro-1H-pyrazolo[4,3-c]pyridin-1-yl)piperidin-1-yl)-2-oxoethyl)azetidin-3-yl)ethyl)amino)-2-(2,6-dioxopiperidin-3-yl)isoindoline-1,3-dione] |
| 28.8 nM | > 80% | – | – | CC(=O)N1CCc2c(c(N3CCCc4cc(-c5cnn(C)c5)c(C(F)F)cc43)nn2C2CCN(C(=O)CCCCCOc3cccc4c3CN(C3CCC(=O)NC3=O)C4=O)CC2)C1 (centres unmarked) [P-121, 3-(4-((6-(4-(5-Acetyl-3-(7-(difluoromethyl)-6-(1-methyl-1H-pyrazol-4-yl)-3,4-dihydroquinolin-1(2H)-yl)-4,5,6,7-tetrahydro-1H-pyrazolo[4,3-c]pyridin-1-yl)piperidin-1-yl)-6-oxohexyl)oxy)-1-oxoisoindolin-2-yl)piperidine-2,6-dione] |
